Measured values from patent KR20130112248A, “피라졸로피리미딘 유도체 화합물, 이를 포함하는 산화질소 생성 억제용 조성물 및 뇌신경 질환 예방 및 치료용 약학적 조성물” (한국과학기술연구원, priority 2012, dated 2013).

The compounds below were run on NO production in BV-2 cells [NO 생성; BV-2 세포] (assay: Nitric oxide (NO) quantification (nitrite, Griess reaction) in LPS-activated BV-2 cells). Conditions: 20 μM, LPS 0.2 ㎍/mL, 24 h co-treatment, nitrite by Griess at 540 nm.
Assay type: cell-based
In the case of “N-(2-메톡시벤질)-6-(메틸설파이닐)-1-페닐-1H-피라졸로[3,4-d]피리미딘-4-아민 [화합물 22c]”, the “NO (% of LPS)” value is reported as 55±4 % of LPS.
For “N-(2-메톡시벤질)-6-(메틸설포닐)-1-페닐-1H-피라졸로[3,4-d]피리미딘-4-아민 [화합물 23d]”, the “NO (% of LPS)” value was 35±7.4 % of LPS.
“N-(2-클로로벤질)-6-(메틸설파이닐)-1-페닐-1H-피라졸로[3,4-d]피리미딘-4-아민 [화합물 22f]” was tested, and the “NO (% of LPS)” value was 58±3.7 % of LPS.
With “N-벤질-1-메틸-6-(메틸티오)피라졸로[3,4-d]피리미딘-4-아민 [화합물 12n]” the “NO (% of LPS)” value was 51±1 % of LPS.

Same assay, conditions: Mus musculus, BV-2, 24 h, 20 μM, LPS 0.2 ㎍/mL, 24 h co-treatment, nitrite by Griess at 540 nm
Compound CSc1nc(NCCc2ccccc2)c2c(-c3ccccc3)nn(-c3ccccc3)c2n1 [화합물 31e, 1-페닐-3-페닐-4-(2-페닐에틸)아미노-6-(메틸티오)피라졸로[3,4-d]피리미딘] has an activity at 20 µM of 105 ± 10%.
CSc1nc(NCc2ccccn2)c2c(-c3ccccc3)nn(-c3ccccc3)c2n1 [화합물 31f, 1-페닐-3-페닐-4-(피리딘-2-일)메틸아미노-6-(메틸티오)피라졸로[3,4-d]피리미딘] gave an activity at 20 µM of 100 ± 5%.
With C=CCNc1nc(SC)nc2c1c(-c1ccccc1)nn2-c1ccccc1 [화합물 31g, 1-페닐-3-페닐-4-알릴아미노-6-(메틸티오)피라졸로[3,4-d]피리미딘] the activity at 20 µM was 71 ± 3%.
